Data reported in patent US20220056015A1, “KIF18A INHIBITORS” (AMGEN INC., priority 2018, published 2022).

Target: T1, Recombinant human KIF18A (1-467 His-tagged) protein (Homo sapiens, UniProt Q8NI77)
T1 construct: Recombinant human KIF18A (1-467 His-tagged) protein; His
Experiment: KIF18A Enzyme Assay: microtubule-stimulated ATPase activity assay (ADP-Glo)
Format: biochemical
Settings: 30 nM KIF18A, 30 μg/mL pig microtubules, ATP at Km 75 μM, room temperature, ADP-Glo luminescence
From the text: KIF18A Enzyme Assay: Microtubule-stimulated ATPase activity assay is used to measure KIF18A enzyme activity after treatment with compound. Compounds were 2-fold serially diluted in DMSO (Sigma Inc) over 22-point concentration range. Recombinant human KIF18A (1-467 His-tagged) protein was expressed using a baculovirus system and purified by affinity chromatography by Amgen Inc. Concentrations of KIF18A protein, microtubules (MT), and ATP in the reaction were optimized for standardized homogenous enzyme assay using ADP-Glorm Kinase/ATPase Assay Kit (Promega Inc). The assay measures ADP formed from the ATPase reaction. […] Read luminescence using EnVision microplate reader with ultra-luminescence module (Perkin Elmer Inc). Concentration-response curve-fitting and ICn determination was performed using Genedata Screener Software (Standard 15.0.1, Genedata Inc) with a four-parameter logistic regression fit model.

T1 sequence (Q8NI77 1-467): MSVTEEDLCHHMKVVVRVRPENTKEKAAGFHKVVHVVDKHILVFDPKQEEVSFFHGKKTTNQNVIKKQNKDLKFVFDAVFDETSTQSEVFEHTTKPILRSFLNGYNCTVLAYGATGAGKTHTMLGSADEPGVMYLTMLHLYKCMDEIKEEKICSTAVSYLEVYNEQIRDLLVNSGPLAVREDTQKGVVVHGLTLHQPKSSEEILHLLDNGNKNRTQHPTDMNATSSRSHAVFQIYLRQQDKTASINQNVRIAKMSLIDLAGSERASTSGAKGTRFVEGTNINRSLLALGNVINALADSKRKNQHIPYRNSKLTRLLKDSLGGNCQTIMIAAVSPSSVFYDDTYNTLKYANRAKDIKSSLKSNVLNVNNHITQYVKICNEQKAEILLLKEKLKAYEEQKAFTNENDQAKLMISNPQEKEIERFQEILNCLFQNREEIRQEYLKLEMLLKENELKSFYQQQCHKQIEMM
T1 sequence (P02550 whole entry partner): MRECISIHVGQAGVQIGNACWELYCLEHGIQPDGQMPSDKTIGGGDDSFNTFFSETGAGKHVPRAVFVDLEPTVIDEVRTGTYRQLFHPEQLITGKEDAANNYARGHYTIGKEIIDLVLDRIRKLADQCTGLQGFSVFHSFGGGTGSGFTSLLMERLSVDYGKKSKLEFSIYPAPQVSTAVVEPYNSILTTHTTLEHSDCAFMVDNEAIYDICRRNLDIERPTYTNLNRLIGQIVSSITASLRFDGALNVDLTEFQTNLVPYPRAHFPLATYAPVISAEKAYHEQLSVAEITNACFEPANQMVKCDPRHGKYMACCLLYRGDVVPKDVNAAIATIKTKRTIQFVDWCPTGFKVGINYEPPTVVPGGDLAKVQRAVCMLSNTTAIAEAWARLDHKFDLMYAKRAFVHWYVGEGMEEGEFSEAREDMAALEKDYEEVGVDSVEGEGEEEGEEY
T1 sequence (P02554 whole entry partner): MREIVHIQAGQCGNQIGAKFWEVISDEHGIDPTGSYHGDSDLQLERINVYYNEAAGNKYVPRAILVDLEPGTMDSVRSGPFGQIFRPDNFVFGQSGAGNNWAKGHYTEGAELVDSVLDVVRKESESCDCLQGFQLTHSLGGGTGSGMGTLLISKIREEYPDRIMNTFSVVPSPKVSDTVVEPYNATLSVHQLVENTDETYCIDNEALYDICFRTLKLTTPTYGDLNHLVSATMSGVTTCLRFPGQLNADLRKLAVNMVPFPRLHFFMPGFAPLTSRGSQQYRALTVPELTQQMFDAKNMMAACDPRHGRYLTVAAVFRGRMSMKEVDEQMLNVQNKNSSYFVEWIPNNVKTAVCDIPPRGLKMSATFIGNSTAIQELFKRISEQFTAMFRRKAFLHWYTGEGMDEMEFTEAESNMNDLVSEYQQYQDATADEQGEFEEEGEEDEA

SMILES | IC50
O=C(Nc1ccc(NS(=O)(=O)CCO)cc1N1CCC2(CC1)CC2)c1ccnc(N2CCC(F)(F)CC2)c1 [Example 11, 2-(4,4-Difluoropiperidin-1-yl)-N-(4-((2-hydroxyethyl)sulfonamido)-2-(6-azaspiro[2.5]octan-6-yl)phenyl)isonicotinamide] | 27 nM
Cc1cc(NC(=O)c2ccc(NS(=O)(=O)CCO)nc2N2CCC3(CC2)CC3)nc(N2CCO[C@H](C)C2)n1 [Example 1-1, (R)-6-((2-Hydroxyethyl)sulfonamido)-N-(6-methyl-2-(2-methylmorpholino)pyrimidin-4-yl)-2-(6-azaspiro[2.5]octan-6-yl)nicotinamide] | 402 nM
Cc1cc(NC(=O)c2cnc(S(=N)(=O)C3CC3)cc2N2CCC3(CC2)CC3)nc(N2CCC(F)(F)CC2)n1 (single isomer, unassigned) [Example 4-1, 4-(6-Azaspiro[2.5]octan-6-yl)-6-(S-cyclopropylsulfonimidoyl)-N-(2-(4,4-difluoro-1-piperidinyl)-6-methyl-4-pyrimidinyl)-3-pyridinecarboxamide] | 264 nM
Cc1cc(NC(=O)c2ncc(S(=O)(=O)C3CC3)cc2N2CCC3(CC2)CC3)nc(N2CCC(F)(F)CC2)n1 [Example 8, 5-(Cyclopropylsulfonyl)-N-(2-(4,4-difluoropiperidin-1-yl)-6-methylpyrimidin-4-yl)-3-(6-azaspiro[2.5]octan-6-yl)picolinamide] | 91 nM
Cc1cc(NC(=O)c2ncc(NC(C)(C)CO)nc2N2CCC3(CC2)CC3)nc(N2CCC(F)(F)CC2)n1 [Example 2-8, N-(2-(4,4-Difluoropiperidin-1-yl)-6-methylpyrimidin-4-yl)-5-((1-hydroxy-2-methylpropan-2-yl)amino)-3-(6-azaspiro[2.5]octan-6-yl)pyrazine-2-carboxamide] | 88 nM
Cc1cc(NC(=O)c2cc(NCCO)ncc2N2CCC3(CC2)CC3)nc(N2CCC(F)(F)CC2)n1 [Example 9, N-(2-(4,4-Difluoropiperidin-1-yl)-6-methylpyrimidin-4-yl)-2-((2-hydroxyethyl)amino)-5-(6-azaspiro[2.5]octan-6-yl)isonicotinamide] | 394 nM
Cc1cc(NC(=O)c2cnc([S@@](=N)(=O)C3CC3)cc2N2CCC3(CC2)CC3)nc(N2CCC(F)(F)CC2)n1 (single isomer, unassigned) [Example 4-2, 4-(6-Azaspiro[2.5]octan-6-yl)-6-(R-cyclopropylsulfonimidoyl)-N-(2-(4,4-difluoro-1-piperidinyl)-6-methyl-4-pyrimidinyl)-3-pyridinecarboxamide] | 206 nM
Cc1cc(NC(=O)c2cnc(NS(=O)(=O)CCO)nc2N2CCC3(CC2)CC3)nc(N2CCC(F)(F)CC2)n1 [Example 7-1, N-(2-(4,4-difluoropiperidin-1-yl)-6-methylpyrimidin-4-yl)-2-((2-hydroxyethyl)sulfonamido)-4-(6-azaspiro[2.5]octan-6-yl)pyrimidine-5-carboxamide] | 272 nM
Cc1cc(NC(=O)c2ccc(NS(=O)(=O)CCO)nc2N2CCC3(CC2)CC3)nc(N2CCC(F)(F)CC2)n1 [Example 1, N-(2-(4,4-difluoropiperidin-1-yl)-6-methylpyrimidin-4-yl)-6-((2-hydroxyethyl)sulfonamido)-2-(6-azaspiro[2.5]octan-6-yl)nicotinamide] | 31 nM
Cc1cc(NC(=O)c2cnc(NS(=O)(=O)CCO)cc2N2CCC3(CC2)CC3)nc(N2CCC(F)(F)CC2)n1 [Example 7, N-(2-(4,4-Difluoropiperidin-1-yl)-6-methylpyrimidin-4-yl)-6-((2-hydroxyethyl)sulfonamido)-4-(6-azaspiro[2.5]octan-6-yl)nicotinamide] | 13 nM
Cc1cc(NC(=O)c2ccc(NC3(C)COC3)nc2N2CCC3(CC2)CC3)nc(N2CCO[C@H](C)C2)n1 [Example 2-1, (R)-N-(6-Methyl-2-(2-methylmorpholino)pyrimidin-4-yl)-6-((3-methyloxetan-3-yl)amino)-2-(6-azaspiro[2.5]octan-6-yl)nicotinamide] | 355 nM
Cc1cc(NC(=O)c2ccc(NC3(CO)COC3)nc2N2CCC3(CC2)CC3)nc(N2CCC(F)(F)CC2)n1 [Example 2-4, N-(2-(4,4-Difluoropiperidin-1-yl)-6-methylpyrimidin-4-yl)-6-((3-(hydroxymethyl)oxetan-3-yl)amino)-2-(6-azaspiro[2.5]octan-6-yl)nicotinamide] | 173 nM
Cc1cc(NC(=O)c2ncc(NS(=O)(=O)CCO)cc2N2CCC3(CC2)CC3)nc(N2CCC(F)(F)CC2)n1 [Example 6, N-(2-(4,4-Difluoropiperidin-1-yl)-6-methylpyrimidin-4-yl)-5-((2-hydroxyethyl)sulfonamido)-3-(6-azaspiro[2.5]octan-6-yl)picolinamide] | 15 nM
Cc1cc(NC(=O)c2ccc(NC3(CO)COC3)nc2N2CCC3(CC2)CC3)nc(N2CCO[C@H](C)C2)n1 [Example 2-2, (R)-6-((3-(Hydroxymethyl)oxetan-3-yl)amino)-N-(6-methyl-2-(2-methylmorpholino)pyrimidin-4-yl)-2-(6-azaspiro[2.5]octan-6-yl)nicotinamide] | 218 nM
Cc1cc(NC(=O)c2ccc(NC(C)(C)CO)nc2N2CCC3(CC2)CC3)nc(N2CCO[C@H](C)C2)n1 [Example 2-5, (R)-6-((1-Hydroxy-2-methylpropan-2-yl)amino)-N-(6-methyl-2-(2-methylmorpholino)pyrimidin-4-yl)-2-(6-azaspiro[2.5]octan-6-yl)nicotinamide] | 230 nM
Cc1cc(NC(=O)c2ncc(NC(C)(C)CO)cc2N2CCC3(CC2)CC3)nc(N2CCC(F)(F)CC2)n1 [Example 2-6, N-(2-(4,4-Difluoropiperidin-1-yl)-6-methylpyrimidin-4-yl)-5-((1-hydroxy-2-methylpropan-2-yl)amino)-3-(6-azaspiro[2.5]octan-6-yl)picolinamide] | 122 nM
Cc1cc(NC(=O)c2ccc(NC3(C)COC3)nc2N2CCC3(CC2)CC3)nc(N2CCC(F)(F)CC2)n1 [Example 2-3, N-(2-(4,4-Difluoropiperidin-1-yl)-6-methylpyrimidin-4-yl)-6-((3-methyloxetan-3-yl)amino)-2-(6-azaspiro[2.5]octan-6-yl)nicotinamide] | 453 nM
Cc1cc(NC(=O)c2ncc(S(=N)(=O)C3CC3)cc2N2CCC3(CC2)CC3)nc(N2CCC(F)(F)CC2)n1 (single isomer, unassigned) [Example 5-2, 3-(6-Azaspiro[2.5]octan-6-yl)-5-(S-cyclopropylsulfonimidoyl)-N-(2-(4,4-difluoro-1-piperidinyl)-6-methyl-4-pyrimidinyl)-2-pyridinecarboxamide] | 71 nM
Cc1cc(NC(=O)c2ncc([S@](=N)(=O)C3CC3)cc2N2CCC3(CC2)CC3)nc(N2CCC(F)(F)CC2)n1 [Example 5-1, 3-(6-Azaspiro[2.5]octan-6-yl)-5-(R-cyclopropylsulfonimidoyl)-N-(2-(4,4-difluoro-1-piperidinyl)-6-methyl-4-pyrimidinyl)-2-pyridinecarboxamide] | 105 nM
Cc1cc(NC(=O)c2ccc(NC3COC3)nc2N2CCC3(CC2)CC3)nc(N2CCO[C@H](C)C2)n1 [Example 2, (R)—N-(6-methyl-2-(2-methylmorpholino)pyrimidin-4-yl)-6-(oxetan-3-ylamino)-2-(6-azaspiro[2.5]octan-6-yl)nicotinamide] | 916 nM
Cc1cc(NC(=O)c2cnc(NC(C)(C)CO)nc2N2CCC3(CC2)CC3)nc(N2CCC(F)(F)CC2)n1 [Example 2-7, N-(2-(4,4-Difluoropiperidin-1-yl)-6-methylpyrimidin-4-yl)-2-((1-hydroxy-2-methylpropan-2-yl)amino)-4-(6-azaspiro[2.5]octan-6-yl)pyrimidine-5-carboxamide] | 55 nM
Cc1cc(NC(=O)c2ncc(NS(=O)(=O)CCO)nc2N2CCC3(CC2)CC3)nc(N2CCC(F)(F)CC2)n1 [Example 10, N-(2-(4,4-Difluoropiperidin-1-yl)-6-methylpyrimidin-4-yl)-5-((2-hydroxyethyl)sulfonamido)-3-(6-azaspiro[2.5]octan-6-yl)pyrazine-2-carboxamide] | 80 nM
